Where only a bound is given, the exact number is not on record here.

Series [1] can be described thus: Effective permeability assessed as drug recovery at pH 7.4 by PAMPA method. The format is ADME. As to conditions: read-out: Drug recovery. (In general: The PAMPA barrier holds no transporters, so it reflects passive diffusion.)
Series [2] is described as follows: Effective permeability at pH 7.4 by PAMPA method. The format is ADME.
Series [3] is described as follows: MRT in CD1 mouse at 100 mg/kg, ip measured after 5 mins to 12 hrs by LC-MS/MS analysis. Type of series: ADME, organism-based. As to conditions: in vivo.
The test system of a further series is BE(2)-C. Kind of series: Inhibition of colony formation in human BE(2)-C cells.
A further series has as its target Histone deacetylase 5 (Homo sapiens, UniProt Q9UQL6). Nature of the series: Inhibition of N-terminal GST-tagged full length human HDAC5 expressed in baculovirus expression system using FAM-RHKK(TF-Ac)-NH2 substrate incubated for 2 hrs by EMSA method. Background: In EMSA bound probe runs differently from free probe, usually more slowly.
Another series deals with T1, Histone deacetylase 7 (Homo sapiens, UniProt Q8WUI4).
T1 sequence (Q8WUI4 whole entry): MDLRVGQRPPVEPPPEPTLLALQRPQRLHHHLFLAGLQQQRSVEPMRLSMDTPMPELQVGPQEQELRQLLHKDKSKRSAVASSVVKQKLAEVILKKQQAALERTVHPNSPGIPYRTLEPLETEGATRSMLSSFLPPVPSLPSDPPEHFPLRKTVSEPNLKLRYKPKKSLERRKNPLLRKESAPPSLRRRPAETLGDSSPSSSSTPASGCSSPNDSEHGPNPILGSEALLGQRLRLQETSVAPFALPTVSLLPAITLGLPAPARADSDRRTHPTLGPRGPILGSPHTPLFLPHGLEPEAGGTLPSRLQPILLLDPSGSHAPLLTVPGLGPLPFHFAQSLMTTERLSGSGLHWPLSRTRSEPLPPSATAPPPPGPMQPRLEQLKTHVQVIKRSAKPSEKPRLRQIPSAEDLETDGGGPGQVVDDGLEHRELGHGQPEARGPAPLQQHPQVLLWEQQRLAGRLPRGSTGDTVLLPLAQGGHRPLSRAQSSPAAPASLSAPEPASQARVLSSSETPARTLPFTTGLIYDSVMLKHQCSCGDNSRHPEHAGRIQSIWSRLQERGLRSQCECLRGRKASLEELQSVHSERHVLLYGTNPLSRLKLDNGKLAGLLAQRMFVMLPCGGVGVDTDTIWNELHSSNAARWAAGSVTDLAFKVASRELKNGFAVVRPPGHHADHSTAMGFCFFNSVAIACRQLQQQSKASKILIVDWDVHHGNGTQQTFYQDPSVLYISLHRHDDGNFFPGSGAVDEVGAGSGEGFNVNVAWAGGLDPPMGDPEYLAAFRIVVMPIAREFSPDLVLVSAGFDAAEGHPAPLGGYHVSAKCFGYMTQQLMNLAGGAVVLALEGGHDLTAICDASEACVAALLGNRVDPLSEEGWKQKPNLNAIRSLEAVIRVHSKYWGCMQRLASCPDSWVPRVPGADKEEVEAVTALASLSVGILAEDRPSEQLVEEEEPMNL
Kind of series: Inhibition of N-terminal GST-tagged human HDAC7 (518 to end residues) expressed in baculovirus expression system using FAM-RHKK(TF-Ac)-NH2 substrate incubated for 3 hrs by EMSA method.

The next series addresses Histone deacetylase 9 (Homo sapiens, UniProt Q9UKV0). Nature of the series: Inhibition of C-terminal His-tagged human HDAC9 (604 to 1066residues) expressed in baculovirus expression system using […] substrate incubated for 3 hrs by EMSA method.
In series [4] the target is T2, Polyamine deacetylase HDAC10 (Homo sapiens, UniProt Q969S8).
T2 sequence (Q969S8 whole entry): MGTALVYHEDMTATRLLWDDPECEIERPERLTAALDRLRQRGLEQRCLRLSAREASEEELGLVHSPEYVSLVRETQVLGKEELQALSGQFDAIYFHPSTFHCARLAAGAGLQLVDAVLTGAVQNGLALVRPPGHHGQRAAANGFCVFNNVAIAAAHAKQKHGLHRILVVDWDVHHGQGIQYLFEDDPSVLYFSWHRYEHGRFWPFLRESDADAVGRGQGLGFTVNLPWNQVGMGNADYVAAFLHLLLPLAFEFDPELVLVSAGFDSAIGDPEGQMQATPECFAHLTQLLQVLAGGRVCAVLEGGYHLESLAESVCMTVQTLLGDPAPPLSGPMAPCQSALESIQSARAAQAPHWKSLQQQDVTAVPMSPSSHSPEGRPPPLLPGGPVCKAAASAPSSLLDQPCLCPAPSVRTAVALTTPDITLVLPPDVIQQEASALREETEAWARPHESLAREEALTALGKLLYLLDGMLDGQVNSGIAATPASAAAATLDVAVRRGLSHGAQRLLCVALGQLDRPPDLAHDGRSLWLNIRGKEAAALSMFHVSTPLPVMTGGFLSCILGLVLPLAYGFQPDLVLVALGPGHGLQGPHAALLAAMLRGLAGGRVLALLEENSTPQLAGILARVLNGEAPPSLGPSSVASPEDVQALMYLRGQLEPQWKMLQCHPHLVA
Nature of the series: Inhibition of N-terminal His-tagged full length human HDAC10 expressed in baculovirus expression system using FAM-TSRHK(Ac)KL-NH2 substrate incubated for 17 hrs by EMSA method.

The target in the next series is Histone deacetylase 4 (Homo sapiens, UniProt P56524). Nature of the series: Inhibition of C-terminal GST-tagged human HDAC4 (101 to 1084 resides) expressed in baculovirus expression system using FAM-RHKK(TF-Ac)-NH2 substrate incubated for […] by EMSA method.
Series [5] is described as follows: Cmax in CD1 mouse at 100 mg/kg, ip measured after 5 mins to 12 hrs by LC-MS/MS analysis. Also on record: dose 100 mg/kg, route intraperitoneal. As to conditions: in vivo. Type of series: ADME, organism-based.
A short description of series [6]: AUClast in CD1 mouse at 100 mg/kg, ip measured after 5 mins to 12 hrs by LC-MS/MS analysis. Also on record: time upper 12 hr, time lower 0.083 hr, dose 100 mg/kg, route intraperitoneal. The format is ADME, organism-based. As to conditions: in vivo.
Series [7] is described as follows: Half life in CD1 mouse at 100 mg/kg, ip measured after 5 mins to 12 hrs by LC-MS/MS analysis. The format is ADME, organism-based. As to conditions: in vivo.

Sequence of Histone deacetylase 5 (Q9UQL6 whole entry): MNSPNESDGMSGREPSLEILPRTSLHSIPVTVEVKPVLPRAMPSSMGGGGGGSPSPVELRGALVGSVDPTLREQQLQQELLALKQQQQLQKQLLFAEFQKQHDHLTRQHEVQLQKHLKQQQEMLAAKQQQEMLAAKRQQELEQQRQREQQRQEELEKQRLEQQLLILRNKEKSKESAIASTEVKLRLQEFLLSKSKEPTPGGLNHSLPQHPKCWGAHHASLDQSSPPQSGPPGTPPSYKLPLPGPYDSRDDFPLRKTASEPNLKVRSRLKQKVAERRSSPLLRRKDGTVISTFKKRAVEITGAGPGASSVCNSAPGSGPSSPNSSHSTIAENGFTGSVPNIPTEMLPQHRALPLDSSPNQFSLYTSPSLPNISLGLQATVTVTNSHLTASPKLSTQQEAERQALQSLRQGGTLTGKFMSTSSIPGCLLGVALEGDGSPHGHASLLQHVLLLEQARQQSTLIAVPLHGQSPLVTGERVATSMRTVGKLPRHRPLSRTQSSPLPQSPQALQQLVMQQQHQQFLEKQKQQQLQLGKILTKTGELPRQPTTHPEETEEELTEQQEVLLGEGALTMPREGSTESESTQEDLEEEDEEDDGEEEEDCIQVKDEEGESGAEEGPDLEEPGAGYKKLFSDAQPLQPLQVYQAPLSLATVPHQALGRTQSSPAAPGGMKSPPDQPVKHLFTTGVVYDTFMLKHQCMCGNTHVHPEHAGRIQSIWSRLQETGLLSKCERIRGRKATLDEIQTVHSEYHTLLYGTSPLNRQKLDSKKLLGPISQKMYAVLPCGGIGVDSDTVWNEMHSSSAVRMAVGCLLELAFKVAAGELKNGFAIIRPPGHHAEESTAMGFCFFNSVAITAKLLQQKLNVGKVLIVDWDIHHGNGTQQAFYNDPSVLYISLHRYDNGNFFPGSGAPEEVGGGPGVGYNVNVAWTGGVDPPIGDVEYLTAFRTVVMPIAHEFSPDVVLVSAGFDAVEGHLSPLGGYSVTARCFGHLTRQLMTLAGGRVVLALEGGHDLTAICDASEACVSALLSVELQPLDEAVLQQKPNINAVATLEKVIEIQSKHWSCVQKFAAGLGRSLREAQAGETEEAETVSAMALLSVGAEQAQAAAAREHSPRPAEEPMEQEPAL
Sequence of Histone deacetylase 9 (Q9UKV0 whole entry): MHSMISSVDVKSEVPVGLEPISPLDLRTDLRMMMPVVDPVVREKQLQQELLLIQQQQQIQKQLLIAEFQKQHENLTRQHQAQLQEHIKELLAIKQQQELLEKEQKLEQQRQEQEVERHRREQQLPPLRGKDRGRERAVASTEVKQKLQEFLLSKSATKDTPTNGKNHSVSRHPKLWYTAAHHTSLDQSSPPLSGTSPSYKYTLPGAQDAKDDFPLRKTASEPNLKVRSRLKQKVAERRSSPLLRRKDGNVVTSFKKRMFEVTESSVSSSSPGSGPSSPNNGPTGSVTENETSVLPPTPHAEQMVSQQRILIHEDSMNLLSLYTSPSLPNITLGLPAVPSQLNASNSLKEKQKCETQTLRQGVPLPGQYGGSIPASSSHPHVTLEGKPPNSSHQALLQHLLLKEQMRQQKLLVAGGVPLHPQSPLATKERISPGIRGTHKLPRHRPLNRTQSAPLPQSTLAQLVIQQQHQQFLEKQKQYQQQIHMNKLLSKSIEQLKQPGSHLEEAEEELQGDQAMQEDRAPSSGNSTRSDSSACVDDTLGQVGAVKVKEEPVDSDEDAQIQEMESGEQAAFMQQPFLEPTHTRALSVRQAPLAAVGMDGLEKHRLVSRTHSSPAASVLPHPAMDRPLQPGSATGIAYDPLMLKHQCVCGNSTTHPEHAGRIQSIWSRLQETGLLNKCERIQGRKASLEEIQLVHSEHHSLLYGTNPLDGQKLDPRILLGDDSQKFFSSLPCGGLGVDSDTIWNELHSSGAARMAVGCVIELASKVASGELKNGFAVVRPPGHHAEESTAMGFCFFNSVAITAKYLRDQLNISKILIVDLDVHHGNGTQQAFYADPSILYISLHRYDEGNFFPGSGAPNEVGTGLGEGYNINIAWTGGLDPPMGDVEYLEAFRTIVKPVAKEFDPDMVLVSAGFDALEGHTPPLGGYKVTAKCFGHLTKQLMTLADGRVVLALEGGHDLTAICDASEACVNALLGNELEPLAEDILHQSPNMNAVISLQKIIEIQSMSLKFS
Sequence of Histone deacetylase 4 (P56524 whole entry): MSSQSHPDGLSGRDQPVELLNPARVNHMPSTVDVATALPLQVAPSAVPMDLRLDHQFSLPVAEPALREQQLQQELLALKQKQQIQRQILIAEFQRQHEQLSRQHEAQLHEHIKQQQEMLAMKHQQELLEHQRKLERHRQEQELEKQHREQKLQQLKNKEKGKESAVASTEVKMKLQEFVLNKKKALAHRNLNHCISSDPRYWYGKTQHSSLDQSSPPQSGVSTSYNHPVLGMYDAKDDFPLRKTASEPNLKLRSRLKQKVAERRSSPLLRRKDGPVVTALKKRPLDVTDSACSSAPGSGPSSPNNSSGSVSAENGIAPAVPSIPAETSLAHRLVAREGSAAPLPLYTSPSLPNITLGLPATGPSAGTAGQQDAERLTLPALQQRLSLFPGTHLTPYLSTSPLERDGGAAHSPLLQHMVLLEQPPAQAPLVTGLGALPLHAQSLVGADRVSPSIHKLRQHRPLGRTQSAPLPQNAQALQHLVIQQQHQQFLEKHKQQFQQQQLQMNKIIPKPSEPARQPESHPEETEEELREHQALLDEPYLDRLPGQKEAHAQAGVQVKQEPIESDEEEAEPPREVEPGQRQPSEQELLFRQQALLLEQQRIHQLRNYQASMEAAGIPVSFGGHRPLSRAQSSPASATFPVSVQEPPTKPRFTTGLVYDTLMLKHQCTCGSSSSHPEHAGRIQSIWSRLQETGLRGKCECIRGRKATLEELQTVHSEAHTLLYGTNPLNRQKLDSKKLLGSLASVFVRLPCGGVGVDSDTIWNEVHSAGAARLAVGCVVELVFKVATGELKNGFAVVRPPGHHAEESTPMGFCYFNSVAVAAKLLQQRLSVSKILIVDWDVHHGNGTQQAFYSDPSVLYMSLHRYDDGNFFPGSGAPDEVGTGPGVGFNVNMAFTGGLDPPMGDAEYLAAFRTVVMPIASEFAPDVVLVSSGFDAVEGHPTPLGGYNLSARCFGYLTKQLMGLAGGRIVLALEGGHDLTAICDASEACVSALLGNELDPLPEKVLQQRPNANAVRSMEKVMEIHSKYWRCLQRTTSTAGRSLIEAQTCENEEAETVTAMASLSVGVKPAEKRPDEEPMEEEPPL

In the case of `CC(C)(C)c1cccc(C(=O)N(CC2CC2)c2ccc(C(=O)NO)cc2)c1`, in [1], the recovery came to 102%. The “log(permeability)” value in [2] was -5.7. The MRT (usually the average time that molecules of a dose stay in the body) in series [3] is 2.77 h. 2.1 µM corresponded to half-maximal inhibition with BE(2)-C (IC50).
With `CC(C)N(C(=O)c1cc(C(F)(F)F)cc(C(F)(F)F)c1)c1ccc(C(=O)NO)cc1`, the recovery in series [1] came to 95.4%. Further, the IC50 (against Histone deacetylase 5; against Histone deacetylase 7; on Histone deacetylase 9; in [4]; against Histone deacetylase 4) was over 10 µM throughout. Also, in [2], the “log(permeability)” value was -5.42.
As for `COc1ccc(Cn2ccc3ccc(C(=O)NO)cc32)cc1`, the concentration in [5] peaked (Cmax) at 57.6 µM. In [3], this compound came in with an MRT of 0.45 h. Further, the AUC(0-t) (commonly the area under the concentration-time curve up to a stated or last time point) in series [6] worked out at 6950 ng·h/mL. Further, the half-life (in general, how long it takes for the measured level to halve) in series [7] is 3.3 h.
With `CC(C)N(C(=O)c1cccc(OC(F)(F)F)c1)c1ccc(C(=O)NO)cc1`, in series [1], the recovery stood at 102%. In series [2], the “log(permeability)” value is -5.8. Besides, the MRT in [3] is 3 h.

Source of the values: ChEMBL document CHEMBL4616727, “Characterization of Conformationally Constrained Benzanilide Scaffolds for Potent and Selective HDAC8 Targeting” (J Med Chem, 2020).
